Data from paper PMC12064818, “A general assay platform to study protein pharmacology using ligand-dependent structural dynamics” (Nature Communications, 2025).
Like-named read-outs stand apart in the source and are kept apart here.

What was measured:
[1] = target: T1, NLuc (Oplophorus gracilirostris, UniProt Q9GV45, A31E/A60N/A81I/F95D/I117V/K70R/L54V/L99Q/M102K/N193R/P142E/Q151K/Q38R/Q45L/V71I/Y165I); type: biochemical; settings: - ATP
T1 construct: His tag (inferred from IMAC purification); made in house; host or cells: E. coli
Experimental: Compounds and controls were added to plates as described in Supplementary Data 8. Nano-Glo luciferase assay reagent (Promega) was prepared fresh according to manufacturer’s protocol, filtered and added at 3 μL per well across assay plates with a BioRaptr2 dispenser. Enzyme was incubated with Nano-Glo reagent for 10 min and NLuc luminescence was read on a ViewLux CCD imager (PerkinElmer), with 1 s exposure with medium gain and 2x binning. Data were normalized to average no enzyme control as 100% enzyme inhibition and average DMSO neutral control. See Supplementary Table 4 for additional details.
Supplementary Table 4. […]
Sequence Param eter Value Description […]
(§1) 5 Detector ViewLux Read plate lum inescence (Exposure = 1- 10 sec; Gain = Medium -high; Speed = Slow;
Dispensing solution was diluted in 1X PBS, pH 7.4.
NanoLuc luciferase (NLuc) enzym atic lum inescence assay […]
Nano-Glo luciferase assay reagent (Prom ega, Cat # N1120) prepared according to m anufacturer’s recom m endations,
4 com ponents stored at -30 °C until use, and reagent prepared fresh for each assay.
syringe filter prior to dispense.

[2] = target: FLuc-C-NLuc (firefly luciferase) (Photinus pyralis, UniProt P08659, form not given/L550V); experiment: SDR assay, FLuc-C-NLuc; settings: - ATP
[3] = target: P. pyralis FLuc (Photinus pyralis, UniProt P08659); experiment: FLuc enzymatic luminescence assay, P. pyralis FLuc; type: biochemical; settings: FLuc enzymatic assay; for IC50: read-out: IC50 or SDR50 (mM) FLuc E
Experimental: The enzyme activity of FLuc-N-HiBiT, FLuc-C-HiBiT, and FLuc-C-NLuc was measured similar to P. pyralis firefly luciferase (FLuc) as previously described. […] Compounds and controls were added to each plate as described in Supplementary Data 8 with a Hornet pintool system (Wako Automation). Compounds were incubated with respective enzymes for 30–60 min at room temperature protected from light and covered by solid metal lid to prevent evaporation. […] Luciferin was incubated with FLuc enzyme for 5 min before FLuc activity was then measured on a ViewLux CCD imager (PerkinElmer), with exposure times up to ten seconds with medium to high gain settings. Data were normalized to average no enzyme control as 100% enzyme inhibition and average DMSO neutral control. See Supplementary Table 4 for additional details.
Assays were run in the presence (solid symbols) or absence
(open symbols) of 10 µM ATP. Corresponding SMIL E S for NC GC IDs and source data are provided in
Supplementary Data 3 and as a Source Data file. 10
Supplementary Table 4. Protocol for Firefly luciferase (FLuc) and NanoLuc (NLuc) enzymatic
Supplementary Table 4: Protocol for Firefly luciferase (FLuc) and NanoLuc (NLuc) enzym atic lum inescence assay
Firefly luciferase (FLuc) enzym atic lum inescence assay
Sequence Param eter Value Description
No enzym e control (colum n 1) and enzym e solution (1- 10 nM FLuc enzym e) in FLuc assay
1 Reagent 4 µLbuffer; white/solid bottom , m edium bind, high base plates (Greiner), dispensed with BioRaptr
com pounds transferred to respective colum ns with Pintool
2b Test Com pounds 23 nLconcentration range) in colum ns 5- 48; com pounds transferred to respective wells with
3 Incubation 30 m in Incubate enzym e + com pounds at am bient tem p for 30 m in, protected from light
4 Reagent 3 µLAdd 3 µL of D-luciferin substrate solution to each well (final concentration 10 µM); dispensed
as §1
Dispensing solution was diluted in 1X PBS, pH 7.4. […]

[4] = target: FLuc-C-HiBiT (firefly luciferase) (Photinus pyralis, UniProt P08659, form not given/L550V); experiment: SDR assay, FLuc-C-HiBiT; settings: SDR max. response, clade S
Sequence of FLuc-C-HiBiT (firefly luciferase) (P08659 2-550 L550V, form open): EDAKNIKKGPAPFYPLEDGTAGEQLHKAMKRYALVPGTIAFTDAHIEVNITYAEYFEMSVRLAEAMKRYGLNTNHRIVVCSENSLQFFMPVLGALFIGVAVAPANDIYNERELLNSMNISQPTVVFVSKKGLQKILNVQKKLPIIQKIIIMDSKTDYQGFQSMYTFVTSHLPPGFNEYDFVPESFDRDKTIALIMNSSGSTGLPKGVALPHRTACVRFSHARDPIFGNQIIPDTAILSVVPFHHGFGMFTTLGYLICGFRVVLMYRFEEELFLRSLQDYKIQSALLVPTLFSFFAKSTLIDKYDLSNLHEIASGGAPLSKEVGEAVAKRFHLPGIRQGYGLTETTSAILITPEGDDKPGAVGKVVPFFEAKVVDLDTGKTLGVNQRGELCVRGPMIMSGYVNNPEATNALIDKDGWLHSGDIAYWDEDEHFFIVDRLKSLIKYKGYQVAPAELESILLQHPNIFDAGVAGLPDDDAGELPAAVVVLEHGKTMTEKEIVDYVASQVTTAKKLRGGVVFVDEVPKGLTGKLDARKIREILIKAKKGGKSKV

Sequence of FLuc-C-NLuc (firefly luciferase) (P08659 2-550 L550V, form open): as above
Sequence of P. pyralis FLuc (P08659 whole entry): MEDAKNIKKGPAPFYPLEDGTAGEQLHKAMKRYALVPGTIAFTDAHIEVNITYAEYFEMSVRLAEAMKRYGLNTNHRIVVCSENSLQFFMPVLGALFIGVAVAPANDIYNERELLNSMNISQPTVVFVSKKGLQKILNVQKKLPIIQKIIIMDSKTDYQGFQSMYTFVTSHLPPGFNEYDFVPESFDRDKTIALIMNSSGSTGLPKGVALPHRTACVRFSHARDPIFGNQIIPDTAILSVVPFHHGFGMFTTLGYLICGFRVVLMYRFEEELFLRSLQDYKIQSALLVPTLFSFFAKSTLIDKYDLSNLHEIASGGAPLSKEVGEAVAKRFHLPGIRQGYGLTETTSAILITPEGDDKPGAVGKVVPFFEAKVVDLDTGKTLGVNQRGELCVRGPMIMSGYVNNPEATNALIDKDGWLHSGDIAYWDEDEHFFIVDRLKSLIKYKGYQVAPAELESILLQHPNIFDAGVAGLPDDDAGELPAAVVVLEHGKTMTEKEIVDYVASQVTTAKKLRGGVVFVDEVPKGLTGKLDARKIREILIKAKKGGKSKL
T1 sequence (Q9GV45 other isoform, or with tags, fused parts or gaps with the stated changes): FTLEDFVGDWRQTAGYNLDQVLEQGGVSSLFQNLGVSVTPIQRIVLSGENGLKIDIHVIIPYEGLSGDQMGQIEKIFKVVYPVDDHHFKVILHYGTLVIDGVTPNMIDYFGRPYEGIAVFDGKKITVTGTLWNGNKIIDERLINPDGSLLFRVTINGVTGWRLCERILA

SMILES | Efficacy (%) NLuc (- ATP) [1] | Efficacy (%) FLuc-C-NLuc SDR (-ATP) [2] | Efficacy (%) FLuc E ([3]; Clade S follow-up) | % Activity (max response, + ATP) [4] | % Activity (max response, - ATP) [4] | pIC50 or pSDR50 FLuc E [3] | IC50 [3] | pIC50 or pSDR50 FLuc E ([3]; Clade S follow-up) | IC50 ([3]; Clade S follow-up)
CCc1ccc(CNC(=O)C2CCN(C(=O)c3ncn4c3COC(c3ccc(F)cc3)C4)CC2)cc1 (centres unmarked) [NCGC00449815-01] | 0.00% | 0.00% | -15.14% | 20.00% | 0.00% |  |  |  | 
O=C(NCc1cc(F)cc(F)c1)C1CCN(C(=O)c2ncn3c2COC(c2ccc(F)cc2)C3)CC1 (centres unmarked) [NCGC00449820-01] | 0.00% | 0.00% | -30.45% | 44.22% | 0.00% | 4.96 | 0.0111 mM |  | 
Cc1ccc(C2Cn3cnc(C(=O)N4CCC(C(=O)NCc5cccc(F)c5)CC4)c3CO2)cc1 (centres unmarked) [NCGC00449899-01] | 0.00% | 0.00% | -43.90% | 60.19% | 0.00% |  |  | 5.01 | 0.00988 mM
COc1ccc(C2Cn3cnc(C(=O)N4CCC(C(=O)NCc5cccc(C)c5)CC4)c3CO2)cc1 (centres unmarked) [NCGC00449879-01] | 0.00% | 0.00% | 0.00% | 0.00% | 0.00% |  |  |  | 
Cc1ccc(C2Cn3cnc(C(=O)N4CCC(C(=O)NCCc5ccccc5)CC4)c3CO2)cc1 (centres unmarked) [NCGC00449896-01] | 10.33% | 0.00% | -32.41% | 46.98% | 0.00% |  |  | 4.91 | 0.0124 mM
CCc1cccc(NC(=O)C2CCN(C(=O)c3ncn4c3COC(c3ccccc3)C4)CC2)c1 (centres unmarked) [NCGC00449906-01] | 0.00% | 0.00% | -98.95% | 357.78% | 0.00% |  |  | 5.76 | 0.00176 mM
CC(NC(=O)C1CCN(C(=O)c2ncn3c2COC(c2ccc(Cl)cc2)C3)CC1)c1ccccc1 (centres unmarked) [NCGC00449853-01] | 0.00% | 0.00% | -16.52% | 0.00% | 0.00% |  |  |  | 
CC(C)CNC(=O)C1CCN(C(=O)c2ncn3c2COC(c2ccc(F)cc2)C3)CC1 (centres unmarked) [NCGC00449805-01] | 0.00% | 0.00% | -24.33% | 48.51% | 0.00% |  |  |  | 
O=C(NCCC1=CCCCC1)C1CCN(C(=O)c2ncn3c2COC(c2ccccc2)C3)CC1 (centres unmarked) [NCGC00449771-01] | 0.00% | 0.00% | -97.83% | 338.43% | 0.00% | 5.56 | 0.00278 mM |  | 
COc1ccc(CNC(=O)C2CCN(C(=O)c3ncn4c3COC(c3ccccc3)C4)CC2)cc1 (centres unmarked) [NCGC00449778-01] | 0.00% | 0.00% | -88.62% | 301.65% | 0.00% | 5.01 | 0.00988 mM |  | 
COc1ccc(C2Cn3cnc(C(=O)N4CCC(C(=O)NCc5ccc(C)cc5)CC4)c3CO2)cc1 (centres unmarked) [NCGC00449866-01] | -22.39% | 0.00% | 0.00% | 0.00% | -10.00% |  |  |  | 
CCCCNC(=O)C1CCN(C(=O)c2ncn3c2COC(c2ccc(F)cc2)C3)CC1 (centres unmarked) [NCGC00449812-01] | 0.00% | 0.00% | -17.96% | 23.59% | 0.00% | 4.91 | 0.0124 mM |  | 
COc1cccc(CNC(=O)C2CCN(C(=O)c3ncn4c3COC(c3ccc(C)cc3)C4)CC2)c1 (centres unmarked) [NCGC00449886-01] | -7.20% | 0.00% | -31.42% | 57.89% | 0.00% |  |  | 4.91 | 0.0124 mM
O=C(NCc1ccc(F)cc1)C1CCN(C(=O)c2ncn3c2COC(c2ccc(Cl)cc2)C3)CC1 (centres unmarked) [NCGC00449852-01] | 0.00% | 0.00% | -25.63% | 32.50% | 0.00% |  |  | 4.86 | 0.0139 mM
O=C(NCc1ccccc1Cl)C1CCN(C(=O)c2ncn3c2COC(c2ccccc2)C3)CC1 (centres unmarked) [NCGC00449786-01] | 15.00% | 0.00% | -73.36% | 336.94% | 0.00% | 5.01 | 0.00988 mM |  | 
CC(NC(=O)C1CCN(C(=O)c2ncn3c2COC(c2ccc(F)cc2)C3)CC1)c1ccc(F)cc1 (centres unmarked) [NCGC00449825-01] | 0.00% | 0.00% | 0.00% | 0.00% | 0.00% |  |  |  | 
Cc1ccc(C2Cn3cnc(C(=O)N4CCC(C(=O)NCc5ccccc5Cl)CC4)c3CO2)cc1 (centres unmarked) [NCGC00449891-01] | 0.00% | 0.00% | -50.12% | 113.62% | 0.00% |  |  | 4.96 | 0.0111 mM
